Reference: ChEMBL document CHEMBL4765282, “Design, synthesis and biological evaluation of 1H-pyrazolo [3,4-d]pyrimidine derivatives as PAK1 inhibitors that trigger apoptosis, ER stress and anti-migration effect in MDA-MB-231 cells” (Eur J Med Chem, 2020)

Experiments:
Type in all cases: functional
[1] = system: MDA-MB-231; experiment: Induction of apoptosis in human MDA-MB-231 cells assessed as early apoptotic cells at 20 uM measured after 24 hrs by Annexin V-FITC/propidium iodide staining based flow cytometry (reference value: 0.81%)
[2] = system: MDA-MB-231; experiment: Induction of apoptosis in human MDA-MB-231 cells assessed as late apoptotic cells at 20 uM measured after 24 hrs by Annexin V-FITC/propidium iodide staining based flow cytometry (reference value: 0.57%)
[3] = Effect on CSTA gene expression in human MDA-MB-231 cells by Trizol reagent based RNA sequencing analysis relative to control

O=C(Nc1cc(C(F)(F)F)cc(C(F)(F)F)c1)NC1CCN(c2ncnc3[nH]ncc23)CC1
Activity [1]: 15.2%
Activity [2]: 6.91%
fold change (FC) [3]: >2
